In US6812255B2, “Use of aloe-emodin in the treatment of neuroectodermal tumors” (Universita Degli Studi Di Padova, priority 2002, dated 2004):

Key:
[1] = test system: neuroblastoma (IMR-32, IMR-5, AF8, SJ-N-KP); assay: In vitro cytotoxicity assay, neuroblastoma cell lines; type: cell-based; settings: Homo sapiens, 72 hours exposure, 0 to 100 μM, read-out: ED50 (half-maximal effective dose), cytotoxicity
Source text: (§2) tumors of neuroectodermic origin: neuroblastoma (IMR-32, IMR-5, AF8, SJ-N-KP), pPNET (TC32), Ewing's sarcoma (TC106), melanoma (Mel 23);

[2] = test system: Ewing's sarcoma (TC106); assay: In vitro cytotoxicity assay, Ewing's sarcoma cells; type: cell-based; settings: Homo sapiens, 72 hours exposure, 0 to 100 μM, read-out: ED50 (half-maximal effective dose), cytotoxicity
Source text: as §2

[3] = In vitro cytotoxicity assay, normal fibroblasts; type: cell-based; settings: human, normal lung fibroblasts (MRC5), 72 hours exposure, 0 to 100 μM, read-out: ED50 (half-maximal effective dose), cytotoxicity
Source text: normal cells: human lung fibroblasts (MRC5).

[4] = test system: acute lymphocytic leukemia lines (CEM, CEM VBL); assay: In vitro cytotoxicity assay, leukemia lines; type: cell-based; settings: Homo sapiens, 72 hours exposure, 0 to 100 μM, read-out: ED50 (half-maximal effective dose), cytotoxicity
Source text: tumors of different origin: T-cell leukemia (CEM) and T-cell leukemia vinblastine-resistant (CEM VBL), colon adenocarcinoma (LoVo 109) and colon adenocarcinoma doxorubicin-resistant (LoVo DX), cervix epithelioid carcinoma (HeLa);

[5] = test system: hemopoietic progenitors cells from bone marrow of healthy donors; assay: Clonogenic test, CFU-GM from bone marrow; type: cell-based; settings: Homo sapiens, 336 h, methyl cellulose, 1-100 μM, 14 days, read-out: ED50 for the growth of CFU-GM colonies
Protocol: (§1) Clonogenic tests have also been carried out on hemopoietic progenitors cells, obtained from bone marrow (BM ? ) of healthy donors and from cord blood (CB □), and on neuroblastoma cells (SJ-N-KP ▪). The cell have been grown in methyl cellulose with scalar doses of AE in concentrations between 1 and 100 μM for 14 days.

[6] = test system: hemopoietic progenitors cells from cord blood; assay: Clonogenic test, CFU-GM from cord blood; type: cell-based; settings: Homo sapiens, 336 h, methyl cellulose, 1-100 μM, 14 days, read-out: ED50 for the growth of CFU-GM colonies
Protocol: as §1

[7] = Acute and chronic toxicity in Swiss mice; type: in vivo; settings: i.p.
Protocol: In the first case assays on acute and chronic toxicity are carried out on Swiss mice (males aged 8-10 weeks) to show possible effects of general toxicity due to AE on weight, neurological and intestinal functions, and hematological parameters. The animals were treated with high doses by intraperitoneal route, between 30 mg/Kg/die and 50 mg/Kg/die, in one administration and with low doses, between 1 mg/Kg/die and 10 mg/Kg/die, for repeated dosages.
The animals were monitored to check possible neurological damages by means of periodically repeated behavioral tests, to check hematic toxicity by means of weekly hemochrome analyses, and to check intestinal toxicity by means of daily faeces analyses. Moreover, the animals have also been weighed twice a week during the whole test. At the end of the tests the animals have been killed and the autopsy has been conducted.

[8] = test system: neuroectodermal tumor cells

| Compound | EC50 [1] | EC50 [2] | EC50 at 72 h [3] | EC50 [4] | EC50 [5] | EC50 [6] | general toxicity (weight, neurological, intestinal, hematological) ([7]; 30-50 mg/Kg/die single or 1-10 mg/Kg/die repeated) | autopsy findings ([7]; at the end of the tests) | cytotoxic effect [8] |
| --- | --- | --- | --- | --- | --- | --- | --- | --- | --- |
| O=C1c2cccc(O)c2C(=O)c2c(O)cc(CO)cc21 [AE, 1,8-dihydroxy-3-hydroxymethyl-9.10-anthracenedione] | 1 µM | 13 µM | 40 µM | 100 µM | 80 µM | 120 µM | No toxicity | not shown any damage to the main organs |  |
| O=C1c2c(O)cccc2C(C2O[C@H](CO)[C@@H](O)[C@H](O)[C@H]2O)c2cc(CO)cc(O)c21 (stereo partly drawn) [glycosylated form of AE, 10-1,5anhydroglucosyl-1,8-dihydroxy-3-hydroxymethyl-9-anthrone] |  |  |  |  |  |  |  |  | no cytotoxic effect |
